The source of these data is PMC9413491, “A Novel and Cross-Species Active Mammalian INDY (NaCT) Inhibitor Ameliorates Hepatic Steatosis in Mice with Diet-Induced Obesity” (Metabolites, 2022).

The test system of assay [1] is fatty acid synthesis in HepG2 cells. Kind of assay: Fatty acid synthesis assay ([14C] citrate incorporation) in HepG2 cells. Format: cell-based, human. The procedure:
We performed the fatty acid synthesis assay in HepG2 cells. We seeded cells into black clear-bottom 96-well plates (Corning 3340 cell plate) 75,000/well and incubated at 37 °C. After 16–24 h, we washed the plates once with 100 µL PBS (+CaCl2 +MgCl2) and added 50 µL assay medium ([…] containing 11 mM glucose, 10 mM HEPES, and 1 nM insulin) per well. Then, we applied test substances in assay medium (10 µL, 5% DMSO) and incubated for 20 min at 37 °C. Thereafter, we added 10 µL assay medium containing [14C] citrate (final concentration 50 µM) and PrestoBlue reagent (1× final concentration; Thermo Fisher Scientific, Waltham, MA, USA) and incubated for 180 min (37 °C, 5% CO2). We measured cell viability (ViewLux instrument, Perkin Elmer). We removed medium by vacuum aspiration and washed cells once with 100 µL PBS (+CaCl2 +MgCl2). We lysed cells with 50 µL lysis buffer (0.1 N NaOH, 0.1 % Triton X-100) and sealed plates with Tape Pads and vortexed. For the saponification reaction, we incubated plates for 16–24 h at 70 °C in a humidified environment. Then, we removed seals and added 200 µL 0.1 N HCl to neutralise the pH. We transferred 150 µL from each into corresponding wells of a 96-well Flash plate (Perkin Elmer) and sealed with TopSeal A (Perkin Elmer). We incubated plates for 4 h at 70 °C and for at least 3 h at room temperature in the dark. We measured [14C] radioactivity (microbeta2, Perkin Elmer). For control samples, we applied 50 mM unlabelled citrate or C75 (Sigma-Aldrich, St. Louis, MO, USA, C5490).

The subject of another assay is DIO mice. Kind of assay: 7-day treatment of diet-induced obesity (DIO) mice. Format: in vivo, mouse. The conditions noted are these: 15 mg/kg twice daily, 7 days. Here is the method:
We performed in vivo testing in DIO mice (for 7- and 28-day treatment), an established model designed to study high-fat-diet-induced hepatic steatosis and associated cardiometabolic traits. We established DIO in four-week-old C57BL/6N male mice that were fed a high-fat diet (HFD, 60 kcal% fat, D12492; Research Diets, Inc.; New Brunswick, NJ, USA) until 11 weeks of age.
Mice were housed at a temperature of 22–24 °C, with a day/night cycle of 12/12 h (07:00-19:00–07:00) and had access to the appropriate diet and tap water ad libitum. Animals allocated to the pair-feeding group were fed the same amount of food as the corresponding treatment group had consumed the day before. Food was only withdrawn for overnight fasting on the penultimate study day before the section on the final day. We randomised groups of n = 12 for treatment and n = 8 for pair-feeding cage-wise according to random fed blood glucose levels and body weight before the study treatment was started. For all animals, the high-fat diet was started at the same age.
We treated DIO mice with the inhibitor or corresponding vehicle (5% DMSO/10% Cremophor® EL/85% water) twice a day at the same time by oral gavage according to their grouping (5, 15, and 50 mg/kg dose groups, and vehicle control groups). During the study, we measured body weight and blood glucose. We measured glucose concentrations in tail tip blood samples with the “Accu-Chek® Performa” glucometer (Roche, Basel, Switzerland, range <33.3 mmol/L). We determined random fed blood glucose and fasting blood glucose after overnight fasting.
We determined serum beta-hydroxybutyrate with a Beta-Hydroxybutyrate Assay kit, (Sigma-Aldrich, Cat.No. MAK041, St. Louis, MO, USA) following the manufacturer’s instructions. The sample was undiluted, and the volume was 5 µL.
We performed Western blots as described previously. Deviating from that protocol samples were heated for 5 min at 95 °C and blotting time was 1 h at 20 volts. For target protein detection, AMPK alpha (D63G4) Rabbit mAb (Cell Signaling Technology, Inc., Danvers, MA, USA; Cat. No. #5832/3; working dilution 1:1000) and Phospho-AMPK alpha (Thr172) (40H9) Rabbit mAb (Cell Signaling Technology, Inc.; Cat. No. #2535/16; working dilution 1:1000) were used; gel loading was controlled by anti-beta-actin (Sigma-Aldrich, Cat. No. A2228). We detected signals with the SuperSignal West Dura Extended Duration Substrate (Thermo Fisher Scientific; Cat. No. 34076, Waltham, MA, USA).

Molecules are shown by their SMILES. Where only a bound is given, the exact number is not on record here.

For the molecule `O=C(Nc1cc(Cl)cc(C(F)(F)F)c1)OCCC(F)(F)F` [ETG-5773], the “IC50 difference in fatty acid synthesis versus PF-06649298” value in assay [1] (ETG-5773 compared to PF-06649298, HepG2) was “around 40 fold”. Besides, in assay [1] (Homo sapiens, HepG2, [14C] citrate incorporation, read-out: IC50 fatty acid synthesis, HepG2), the IC50 was determined as 1 µM. Also, the “Liver fat after seven-days treatment” value in the assay with DIO mice is on record as “not sufficient to significantly reduce liver fat”. In the assay with DIO mice (Western blot, p < 0.01), the “Ratio of phosphorylated AMPK to total AMPK in liver vs both control groups” value is “AMPK activation”. In the assay on DIO mice (numerically reduced, p = 0.24), the “HOMA-IR change vs vehicle” value is given as −95%. Moreover, the “Fasting serum insulin change vs vehicle” value with DIO mice (numerically reduced, p = 0.4) is listed as −91%. For the same molecule, in the assay with DIO mice (p < 0.0001), the “Body weight change vs vehicle control” value is on record as −15%, the “Fasting blood glucose change vs vehicle” value is listed as −45% and the “Reduction in fasting blood glucose vs pair-fed vehicle control” value is 36%. In the assay on DIO mice (p < 0.05), the “Reduction in HOMA-IR vs pair-fed vehicle control” value is above 95% and the “Reduction in fasting serum insulin vs pair-fed vehicle control” value is recorded as above 95%.
